Data on ten compounds can be found in PubChem BioAssay AID220 (DTP/NCI, 2004).

The experiment has as its system CD8F1 mice, subcutaneous mammary adenocarcinoma, T/C%. Put plainly: NCI In Vivo Anticancer Drug Screen. Data for tumor model Mammary Adenocarcinoma CD8F1 (subcutaneous) in CD8F1. Conditions: higher = larger tumour. The method in brief: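 Mice carrying transplanted tumors received test compound, and survival or tumor size was recorded. Each value is the treated-group measurement divided by the corresponding measurement in vehicle-dosed controls.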

The mark [1] stands for this setting: endpoint: median tumor weight change, dose: 125.0 mg/kg/injection, schedule: Q01DX001 (ip), vehicle: saline with Tween-80.
[2] abbreviates: endpoint: median tumor weight change, dose: 500.0 mg/kg/injection, schedule: Q01DX001 (ip), vehicle: saline with Tween-80.

Structures are written as SMILES. Several values for one entry are separate records, joined by “and”; a condition that tells them apart may be missing. Equal entries are not always repeated. Inconclusive results are not listed.

Consider `O=C1c2ccccc2C(=O)c2c(NCCNCCO)ccc(NCCNCCO)c21`, for which the T/C by setting is: (endpoint: mean tumor weight, dose: 8.3 mg/kg/injection, schedule: Q07DX004 (ip), vehicle: Klucel (hydroxypropylcellulose) (HPC)) 60 % of control; (endpoint: mean tumor weight, dose: 16.6 mg/kg/injection, schedule: Q07DX004 (ip), vehicle: Klucel (hydroxypropylcellulose) (HPC)) 81 % of control; (endpoint: mean tumor weight, dose: 31.25 mg/kg/injection, schedule: Q07DX004 (ip), vehicle: Klucel (hydroxypropylcellulose) (HPC)) 25 % of control; (endpoint: mean tumor weight, dose: 62.5 mg/kg/injection, schedule: Q07DX004 (ip), vehicle: Klucel (hydroxypropylcellulose) (HPC)) 59 % of control; (endpoint: mean tumor weight, dose: 125.0 mg/kg/injection, schedule: Q07DX004 (ip), vehicle: Klucel (hydroxypropylcellulose) (HPC)) 37 % of control; (endpoint: median tumor weight (est.), dose: 2.0 mg/kg/injection, schedule: Q07DX005 (ip), vehicle: saline) 74 % of control. The T/C runs as follows: (endpoint: median tumor weight (est.), dose: 4.0 mg/kg/injection, schedule: Q04DX005 (ip), vehicle: water) 97 % of control; (endpoint: median tumor weight (est.), dose: 4.0 mg/kg/injection, schedule: Q07DX004 (ip), vehicle: water) 74 % of control; (endpoint: median tumor weight (est.), dose: 4.0 mg/kg/injection, schedule: Q07DX005 (ip), vehicle: saline) 92 % of control; (endpoint: median tumor weight (est.), dose: 4.0 mg/kg/injection, schedule: Q07DX005 (ip), vehicle: water) 93 % of control; (endpoint: median tumor weight (est.), dose: 8.0 mg/kg/injection, schedule: Q04DX005 (ip), vehicle: water) 62 % of control; (endpoint: median tumor weight (est.), dose: 8.0 mg/kg/injection, schedule: Q07DX004 (ip), vehicle: water) 69 % of control. Moreover, the T/C runs as follows: (endpoint: median tumor weight (est.), dose: 8.0 mg/kg/injection, schedule: Q07DX005 (ip), vehicle: saline) 92 % of control; (endpoint: median tumor weight (est.), dose: 15.63 mg/kg/injection, schedule: Q04DX005 (ip), vehicle: Klucel (hydroxypropylcellulose) (HPC)) 30 % of control; (endpoint: median tumor weight (est.), dose: 15.63 mg/kg/injection, schedule: Q07DX004 (ip), vehicle: Klucel (hydroxypropylcellulose) (HPC)) 33 % of control; (endpoint: median tumor weight (est.), dose: 16.0 mg/kg/injection, schedule: Q04DX005 (ip), vehicle: water) 66 % of control; (endpoint: median tumor weight (est.), dose: 16.0 mg/kg/injection, schedule: Q07DX004 (ip), vehicle: water) 72 % of control; (endpoint: median tumor weight (est.), dose: 16.0 mg/kg/injection, schedule: Q07DX005 (ip), vehicle: saline) 84 % of control. The T/C was 9 % of control (endpoint: median tumor weight (est.), dose: 16.12 mg/kg/injection, schedule: Q04DX005 (ip), vehicle: Klucel (hydroxypropylcellulose) (HPC)); 17 % of control (endpoint: median tumor weight (est.), dose: 16.12 mg/kg/injection, schedule: Q07DX004 (ip), vehicle: Klucel (hydroxypropylcellulose) (HPC)); 11 % of control (endpoint: median tumor weight (est.), dose: 31.25 mg/kg/injection, schedule: Q04DX005 (ip), vehicle: Klucel (hydroxypropylcellulose) (HPC)); 63 % of control (endpoint: median tumor weight (est.), dose: 32.0 mg/kg/injection, schedule: Q01DX001 (ip), vehicle: water); 18 % of control (endpoint: median tumor weight (est.), dose: 32.0 mg/kg/injection, schedule: Q04DX005 (ip), vehicle: water); 44 % of control (endpoint: median tumor weight (est.), dose: 32.0 mg/kg/injection, schedule: Q07DX004 (ip), vehicle: water). In addition, the T/C runs as follows: (endpoint: median tumor weight (est.), dose: 32.0 mg/kg/injection, schedule: Q07DX005 (ip), vehicle: saline) 56 % of control; (endpoint: median tumor weight (est.), dose: 62.5 mg/kg/injection, schedule: Q07DX005 (ip), vehicle: Klucel (hydroxypropylcellulose) (HPC)) 10 % of control; (endpoint: median tumor weight (est.), dose: 64.0 mg/kg/injection, schedule: Q07DX004 (ip), vehicle: water) 7 % of control; (endpoint: median tumor weight (est.), dose: 64.0 mg/kg/injection, schedule: Q07DX005 (ip), vehicle: water) 19 % of control.

Regarding `CCOC(=O)c1ccc(NC(=O)Nc2nccs2)cc1`, the T/C reads like this: (endpoint: median tumor weight (est.), dose: 12.5 mg/kg/injection, schedule: Q07DX005 (ip), vehicle: saline with Tween-80) 150 % of control; (endpoint: median tumor weight (est.), dose: 25.0 mg/kg/injection, schedule: Q07DX005 (ip), vehicle: saline with Tween-80) 46 % of control; (endpoint: median tumor weight (est.), dose: 50.0 mg/kg/injection, schedule: Q07DX005 (ip), vehicle: saline with Tween-80) 60 % of control; (endpoint: median tumor weight (est.), dose: 100.0 mg/kg/injection, schedule: Q07DX005 (ip), vehicle: saline with Tween-80) 96 % of control; (endpoint: median tumor weight (est.), dose: 200.0 mg/kg/injection, schedule: Q07DX005 (ip), vehicle: saline with Tween-80) 49 % of control; (endpoint: median tumor weight (est.), dose: 400.0 mg/kg/injection, schedule: Q07DX005 (ip), vehicle: saline with Tween-80) 43 % of control.

For the compound `COC1=C(C)C(=O)C2=C(C1=O)C(CO)N1C(C#N)C3CC4C(C1C2N1CCOC41)N3C` (centres undefined), the T/C (endpoint: median tumor weight change, dose: 0.62 mg/kg/injection, schedule: Q01DX001 (ip), vehicle: saline + alcohol) was 120 % of control; the T/C (endpoint: median tumor weight change, dose: 1.25 mg/kg/injection, schedule: Q01DX001 (ip), vehicle: saline + alcohol) is 98 % of control and 107 % of control and 116 % of control.

With `COc1cccc2c1C(=O)c1c(O)c3c(c(O)c1C2=O)C[C@@](O)(C(=O)CO)C[C@@H]3OC1CC(OC(C)=O)C(OC(C)=O)C(C)O1` (some centres undefined), the T/C by setting is: (endpoint: median tumor weight (est.), dose: 3.12 mg/kg/injection, schedule: Q07DX005 (ip), vehicle: distilled water + Tween-80) 65 % of control; (endpoint: median tumor weight (est.), dose: 6.25 mg/kg/injection, schedule: Q07DX005 (ip), vehicle: distilled water + Tween-80) 58 % of control; (endpoint: median tumor weight (est.), dose: 12.5 mg/kg/injection, schedule: Q07DX005 (ip), vehicle: distilled water + Tween-80) 6 % of control; (endpoint: median tumor weight (est.), dose: 25.0 mg/kg/injection, schedule: Q07DX005 (ip), vehicle: distilled water + Tween-80) 13 % of control.

Regarding `COc1cccc2c1C(=O)c1c(O)c3c(c(O)c1C2=O)C[C@@](O)(/C(C)=N/NC(=O)c1ccccc1)C[C@@H]3OC1CC(N)C(O)C(C)O1` (some centres undefined), the T/C by setting is: (endpoint: median tumor weight (est.), dose: 3.12 mg/kg/injection, schedule: Q07DX005 (ip), vehicle: water) 263 % of control; (endpoint: median tumor weight (est.), dose: 6.25 mg/kg/injection, schedule: Q07DX005 (ip), vehicle: water) 82 % of control.

With `C/C=C(\Cl)C1=CC(=O)C23CC2C2(C)COC1(O)C3(O)O2` (centres undefined), the T/C (endpoint: median tumor weight (est.), dose: 6.0 mg/kg/injection, schedule: Q07DX005 (ip), vehicle: saline with Tween-80) is 90 % of control.

With `CCn1cnc2c(=S)nc[nH]c21`, the T/C is 66 % of control under setting [1]; 50 % of control (endpoint: median tumor weight change, dose: 250.0 mg/kg/injection, schedule: Q01DX001 (ip), vehicle: saline with Tween-80); 64 % of control under setting [2]; 39 % of control (endpoint: median tumor weight change, dose: 1000.0 mg/kg/injection, schedule: Q01DX001 (ip), vehicle: saline with Tween-80).

For `COc1cc(OC)c(NC(=O)ON2C(=O)c3ccccc3C2=O)cc1Cl`, the T/C was 62 % of control (endpoint: median tumor weight change, dose: 31.25 mg/kg/injection, schedule: Q01DX001 (ip), vehicle: saline with Tween-80); 81 % of control (endpoint: median tumor weight change, dose: 62.5 mg/kg/injection, schedule: Q01DX001 (ip), vehicle: saline with Tween-80); 92 % of control under setting [1]; 26 % of control under setting [2].

Take `CN1N=C(N)c2cn(C3OC(COP(=O)(O)O)C(O)C3O)c3ncnc1c23` (centres undefined): the T/C is, setting by setting: (endpoint: median tumor weight (est.), dose: 9.37 mg/kg/injection, schedule: Q07DX005 (ip), vehicle: other) 46 % of control; (endpoint: median tumor weight (est.), dose: 12.5 mg/kg/injection, schedule: Q07DX005 (ip), vehicle: water) 121 % of control; (endpoint: median tumor weight (est.), dose: 18.75 mg/kg/injection, schedule: Q07DX005 (ip), vehicle: other) 52 % of control; (endpoint: median tumor weight (est.), dose: 25.0 mg/kg/injection, schedule: Q07DX005 (ip), vehicle: water) 54 % of control; (endpoint: median tumor weight (est.), dose: 37.5 mg/kg/injection, schedule: Q07DX005 (ip), vehicle: other) 25 % of control; (endpoint: median tumor weight (est.), dose: 50.0 mg/kg/injection, schedule: Q07DX005 (ip), vehicle: water) 25 % of control. Moreover, the T/C is 16 % of control (endpoint: median tumor weight (est.), dose: 75.0 mg/kg/injection, schedule: Q07DX005 (ip), vehicle: other); 7 % of control (endpoint: median tumor weight (est.), dose: 100.0 mg/kg/injection, schedule: Q07DX005 (ip), vehicle: water); 5 % of control (endpoint: median tumor weight (est.), dose: 150.0 mg/kg/injection, schedule: Q07DX005 (ip), vehicle: other).

For `C1OC1CN1CCN(CC2CO2)CC1` (centres undefined), the T/C is 72 % of control and 80 % of control (endpoint: median tumor weight (est.), dose: 3.12 mg/kg/injection, schedule: Q07DX005 (ip), vehicle: saline); 24 % of control and 38 % of control (endpoint: median tumor weight (est.), dose: 12.5 mg/kg/injection, schedule: Q07DX005 (ip), vehicle: saline); 24 % of control and 28 % of control (endpoint: median tumor weight (est.), dose: 25.0 mg/kg/injection, schedule: Q07DX005 (ip), vehicle: saline); 1 % of control and 4 % of control (endpoint: median tumor weight (est.), dose: 50.0 mg/kg/injection, schedule: Q07DX005 (ip), vehicle: saline).
